According to patent US6063777A, “Iminochlorinaspartic acid derivatives” (Wyeth Lederle Japan, Ltd., priority 1996, dated 2000):
≈ marks a conversion by molar mass, not a printed value.

Legend:
retinal capillaries = assay: Occlusion of retinal capillaries by PDT, histological findings 24 hours after laser irradiation; type: in vivo, rats (Long Evance Rats); settings: 16 mg/kg
Protocol: (§1) The following experiments were performed to investigate the optimal treatment parameters (timing of laser irradiation after dosing of the compound; laser irradiation dosage) for selective occlusion of choroidal neoplastic vessels by PDT using the compound of the present invention and a diode laser (produced by Hamamatsu Photonics; wavelength: 672 nm).
(§2) Photocoagulation was induced in rats (Long Evance Rats weighing 200-300 g) by Argon green laser irradiation (irradiation diameter: 100 μm, 140 mW, 0.1 sec) near the retinal papilla on funduc oculi. Ten days after photocoagulation, fundus photographs and fluorescein angiographs were taken and the animals showing development of choroidal neovascularization were used for experiments at the 11th day.
(§3) The compound of the present invention was administered via the tail vein at a dose of 16 mg/kg. After administration, time course distribution of the compound in the eyeball tissues was observed by fluorescence microscopy.
(§4) Laser irradiation was done by using the above-mentioned diode laser. The laser beam was confirmed to extend in the range of 500 μm in diameter on the retinal surface. Duration of irradiation was 4 minutes and the irradiation intensity varied at 30.6, 91.7, 152.9 and 244.9 mW/cm^2 on the retinal surface. These values correspond to 7.4, 22.0, 36.7 and 58.8 J/cm^2, respectively.
(§5) Assessment of the PDT using the compound of the present invention was made based on the fundus photographs taken with a fundus camera (produced by Jenesis Kowa) at 1 hour and 24 hours after laser irradiation. Occlusion of the neoplastic vessels and damage to the surrounding tissues were investigated by fluorescein antiography and histological examinations to assess the selectivity of the therapeutic effect.

cancerous tissues = assay: Accumulability to cancerous tissues and excretion from normal tissues (general findings); type: in vivo
albumin = assay: Albumin test (change in UV absorption spectrum in mixture with albumin); type: binding
Excerpt: (§6) When compound (I) was examined by albumin test [that is, a convenient test method for evaluating the affinity to cancerous tissues, in which a chlorin derivative is examined on the change in ultraviolet (UV) absorption spectrum in a mixture form with albumin and in which one of the present inventors has found a certain rule] and dancyl methionine test [that is, a convenient test method for evaluating the strength of the photoreactivity by thin layer chromatography (TLC) or high performance liquid chromatography (HPLC)]

[1] = Stability in vivo and in vitro
[2] = Dancyl methionine test (photoreactivity by TLC or HPLC)
Excerpt: as §6

[3] = Preliminary experiments: blood half-life after intravenous administration; type: in vivo; settings: rats and rabbits
eyeball tissues = assay: Time course distribution of the compound in eyeball tissues by fluorescence microscopy; type: in vivo, rats (Long Evance Rats); settings: 16 mg/kg tail vein
Protocol: as §2, §3

Water solubility = type: physicochemical
[4] = tested on: choroidal neoplastic vessels; assay: Occlusion of choroidal neoplastic vessels by PDT, histological findings 24 hours after laser irradiation; type: in vivo, rats (Long Evance Rats); settings: for Occlusion of choroidal neoplastic vessels: 16 mg/kg
Protocol: as §1, §2, §3, §4, §5

HeLa cells = assay: HeLa cell survival after diode laser (670 nm) irradiation, MTS-PMS reagent; type: cell-based
Protocol: HeLa cells were seeded in wells of a 96-well plate each containing 100 μl of a culture medium at 5×10^3 /well, and incubated at 37° C. overnight. In each well, the culture medium was removed, and 100 μl of a solution containing sodium salt of either of compound (I) or compound (II) in concentrations of 0, 6.25, 12.5, 25, 50 and 100 μM/ml was added (3 wells for each group of the concentrations) and incubated at 37° C. at for 6 hrs. Each well was washed with PBS(-) once, and then 100 μl of a fresh medium was added. The wells were irradiated using a diode laser (670 nm) under the conditions of 0.44W of laser intensity, 0.785 cm^2 of irradiation area (diameter: 1 cm) and 25 J/cm^2 of laser energy. After the irradiation, each well was incubated at 37° C. overnight and washed with PBS(-) once, then 100 μl of a fresh medium was added. To each well was added 20 μl of MTS-PMS reagent, and the well was further incubated at 37° C. for 2-4 hrs. The absorbance of each well at 492 nm was measured using a microplate reader. The cell survival rate at each of the above mentioned concentrations of the test compound was calculated considering the value for the well of 0 μM/ml of the test compound as 100%.

[5] = Absorption wavelength / molar absorption coefficient; type: physicochemical
[6] = Phosphorescence life time; type: physicochemical
[7] = 7.4 J/cm^2, irradiation 60 min after administration
[8] = 22.0 J/cm^2, irradiation 60 min after administration
[9] = 22.0 J/cm^2, irradiation 120 min after administration
[10] = 22.0 J/cm^2, irradiation 240 min after administration
[11] = 22.0 J/cm^2, irradiation immediately after administration
[12] = 36.7 J/cm^2, irradiation 60 min after administration
[13] = 36.7 J/cm^2, irradiation 120 min after administration
[14] = 36.7 J/cm^2, irradiation 240 min after administration
[15] = 36.7 J/cm^2, irradiation immediately after administration
[16] = 58.8 J/cm^2, irradiation 60 min after administration
[17] = 58.8 J/cm^2, irradiation 120 min after administration
[18] = 58.8 J/cm^2, irradiation 240 min after administration
[19] = 58.8 J/cm^2, irradiation immediately after administration

## C=Cc1c(C)c2cc3nc(cc4[nH]c(cc5nc(cc1[nH]2)C(C)=C5CCC(=O)NC(CC(=O)O)C(=O)O)c(CCC(=O)NC(CC(=O)O)C(=O)O)c4C)C(C)(O)C3=CC=NO (stereo not shown) [Compound (I)]
Retinal capillaries; [7]
  Occlusion of retinal capillaries: Closed
Retinal capillaries; 7.4 J/cm^2, irradiation 120 min after administration
  Occlusion of retinal capillaries: Open
Retinal capillaries; 7.4 J/cm^2, irradiation 240 min after administration
  Occlusion of retinal capillaries: Open
Retinal capillaries; [8]
  Occlusion of retinal capillaries: Closed
Retinal capillaries; [9]
  Occlusion of retinal capillaries: Open
Retinal capillaries; [10]
  Occlusion of retinal capillaries: Open
Retinal capillaries; [11]
  Occlusion of retinal capillaries: Closed
Retinal capillaries; [12]
  Occlusion of retinal capillaries: Closed
Retinal capillaries; [13]
  Occlusion of retinal capillaries: Closed
Retinal capillaries; [14]
  Occlusion of retinal capillaries: Closed
Retinal capillaries; [15]
  Occlusion of retinal capillaries: Closed
Retinal capillaries; [16]
  Occlusion of retinal capillaries: Closed
Retinal capillaries; [17]
  Occlusion of retinal capillaries: Closed
Retinal capillaries; [18]
  Occlusion of retinal capillaries: Closed
Retinal capillaries; [19]
  Occlusion of retinal capillaries: Closed
Cancerous tissues; compared with compound of formula (II)
  accumulability to cancerous tissues: remarkably superior accumulability to cancerous tissues as compared with the compound of formula (II)
Cancerous tissues; in vivo
  excretion from normal tissues: quick excretion property from normal tissues
albumin
  affinity to albumin: good affinity to albumin
  transferability to cancerous tissues (albumin test): excellent transferability to cancerous tissues
[1]
  stability in vivo and in vitro: high stability in vivo, as well as in vitro
[2]
  photosensitivity (dancyl methionine test): strong photosensitivity
[2]; dancyl methionine test
  cell killing effect when exposed to light: good cell killing effect when exposed to light
[3]; after 24 hours, intravenous
  compound in blood: undetectable in blood after 24 hours
[3]; blood, intravenous administration
  half-life: 30 min
Eyeball tissues; 5 minutes after administration
  fluorescence in choroid, lumens of choriocapillaris, choroidal arteries and veins: fluorescence was observed in the lumens of the choriocapillaris, choroidal arteries and veins
  fluorescence in choroidal artery wall: also observed in the choroidal artery wall
  fluorescence in retina, artery wall: prominent fluorescence was observed in the artery wall
  fluorescence in retina, lumens of the blood capillaries: weak fluorescence was observed in the lumens of the blood capillaries
  fluorescence in the entire choroidal neovascular tissues: weak fluorescence
  fluorescence intensity, neoplastic vessels versus surrounding tissues: did not clearly differ between the neoplastic vessels and the surrounding tissues
Eyeball tissues; 30 minutes to 1 hour after administration
  fluorescence from the whole neoplastic vessels: fluorescence from the whole neoplastic vessels increased
Eyeball tissues; 2 hours after administration
  fluorescence in choroidal artery wall: prominent fluorescence was observed in the choroidal artery wall
  fluorescence in lumens of large choroidal vessels and retinal artery wall: diminished
  fluorescence in the choriocapillaris veins: disappeared
Eyeball tissues; 4 hours after administration
  fluorescence in choroidal artery wall and retinal vessels: gradually diminished
  fluorescence in the choroidal neoplastic vessels: persisted
Eyeball tissues; 24 hours after administration
  fluorescence in choroidal neoplastic vessels and other vessels: all disappeared
Water solubility
  water solubility: good water solubility
Water solubility; water, aqueous solution, read-out: high concentration solution (water solubility)
  solubility: 50 mg/mL (≈ 59.5 mM)
[4]; [7]
  Occlusion of choroidal neoplastic vessels: Closed
[4]; 7.4 J/cm^2, irradiation immediately after administration
  Occlusion of choroidal neoplastic vessels: Closed
[4]; 7.4 J/cm^2 immediately after administration
  selective occlusion of choroidal neoplastic vessels and choriocapillaris: selective occlusion of the choroidal neoplastic vessels and choriocapillaris was achieved without causing serious damage to the retinal capillaries and choroidal arteries and veins
[4]; [8]
  Occlusion of choroidal neoplastic vessels: Closed
[4]; [9]
  Occlusion of choroidal neoplastic vessels: Closed
[4]; [10]
  Occlusion of choroidal neoplastic vessels: Closed
[4]; [11]
  Occlusion of choroidal neoplastic vessels: Closed
[4]; 22.0 J/cm^2 at 2-4 hours after administration
  selective occlusion of choroidal neoplastic vessels and choriocapillaris: selective occlusion of the choroidal neoplastic vessels and choriocapillaris was achieved without causing serious damage to the retinal capillaries and choroidal arteries and veins
[4]; [12]
  Occlusion of choroidal neoplastic vessels: Closed
[4]; [13]
  Occlusion of choroidal neoplastic vessels: Closed
[4]; [14]
  Occlusion of choroidal neoplastic vessels: Closed
[4]; [15]
  Occlusion of choroidal neoplastic vessels: Closed
[4]; [16]
  Occlusion of choroidal neoplastic vessels: Cldsed
[4]; [17]
  Occlusion of choroidal neoplastic vessels: Closed
[4]; [18]
  Occlusion of choroidal neoplastic vessels: Closed
[4]; [19]
  Occlusion of choroidal neoplastic vessels: Closed
HeLa cells
  cell destructing effect induced by a photosensitizing reaction: strong cell destructing effect induced by a photosensitizing reaction
HeLa cells; Homo sapiens, HeLa, light or radiation study, 6.25 μM, sodium salt, 6 hrs, 670 nm, 25 J/cm^2, read-out: Cell Survival Rate
  viability at 6.25 µM: 43%
HeLa cells; Homo sapiens, HeLa, light or radiation study, 12.5 μM, sodium salt, 6 hrs, 670 nm, 25 J/cm^2, read-out: Cell Survival Rate
  viability at 12.5 µM: 19%
HeLa cells; Homo sapiens, HeLa, light or radiation study, 25 μM, sodium salt, 6 hrs, 670 nm, 25 J/cm^2, read-out: Cell Survival Rate
  viability at 25 µM: 13%
HeLa cells; Homo sapiens, HeLa, light or radiation study, 50 μM, sodium salt, 6 hrs, 670 nm, 25 J/cm^2, read-out: Cell Survival Rate
  viability at 50 µM: 10%
HeLa cells; Homo sapiens, HeLa, light or radiation study, 100 μM, sodium salt, 6 hrs, 670 nm, 25 J/cm^2, read-out: Cell Survival Rate
  viability at 100 µM: 10%
HeLa cells; compared with position isomer
  cell killing effect against tumor cells: remarkably higher cell killing effect against tumor cells compared with the position isomer
[5]
  longest wavelength absorption end: ≥ 670 nm
[6]
  phosphorescence life time: long phosphorescence life time
